# Tests used:
# Assay type in all cases: in vivo, human
# [1] = single administration of eye drop to a subject who had eye pain; conditions: eye drop comprising 0.12%, after single administration, subject with eye pain
# From the text: A subject who had eye pain received eye drop comprising 0.12% isopropyl unoprostonen. After single administration of it, eye pain was improved. On the other hand, after single administration of placebo, eye pain was not improved.
# [2] = single administration of eye drop to a subject who had blurring of vision; conditions: eye drop comprising 0.12%, after single administration, subject with blurring of vision
# From the text: A subject who had blurring of vision received eye drop comprising 0.12% isopropyl unoprostone. After single administration of it, eye discharge and blurry vision were improved. On the other hand, after single administration of placebo, eye discharge and blurry vision were not improved.
# [3] = eye drop twice a day for seven days to a subject with presbyopia and astigmatism who was difficult to focus on the objects; conditions: eye drop comprising 0.12% twice a day
# From the text: A subject who was difficult to focus on the objects even using the farsighted glasses received eye drop comprising 0.12% isopropyl unoprostone twice a day. They were presbyopia and astigmatism.
smiles,measurement,setting,value
"CCCCCCCC(=O)CC[C@@H]1[C@@H](C/C=C\CCCC(=O)OC(C)C)[C@@H](O)C[C@H]1O [isopropyl unoprostone, (+)-isopropyl (Z)-7-[(1R,2R,3R,5S)-3,5-dihydroxy-2-(3-oxodecyl)cyclopentyl]hept-5-enoate]",eye pain,[1],improved
same,blurry vision,[2],improved
same,eye discharge,[2],improved
same,ability to focus on the objects (accommodative function),"[3]; after seven days administration, subject with presbyopia and astigmatism",able to focus on the objects easier and quicker than before the administration
same,duration of the improvement in focusing,[3]; seven days administration,continued for three weeks

# From patent US20120259008A1, “METHOD FOR TREATING ASTHENOPIA” (SUCAMPO AG, priority 2011, published 2012)
